Common to all, as to assay: UV-visible spectral titration, difference spectra, quadratic fit
Holding throughout (type): binding

In assay [1] the target is T1, cytochrome P450 OleP (Streptomyces antibioticus, UniProt Q59819, E89Y).
T1 construct: recombinant His-tagged OleP mutants from pET28b(+)-OleP, expressed in E. coli BL21(DE3), monomer, heme-containing
T1 sequence (Q59819 1-407 E89Y): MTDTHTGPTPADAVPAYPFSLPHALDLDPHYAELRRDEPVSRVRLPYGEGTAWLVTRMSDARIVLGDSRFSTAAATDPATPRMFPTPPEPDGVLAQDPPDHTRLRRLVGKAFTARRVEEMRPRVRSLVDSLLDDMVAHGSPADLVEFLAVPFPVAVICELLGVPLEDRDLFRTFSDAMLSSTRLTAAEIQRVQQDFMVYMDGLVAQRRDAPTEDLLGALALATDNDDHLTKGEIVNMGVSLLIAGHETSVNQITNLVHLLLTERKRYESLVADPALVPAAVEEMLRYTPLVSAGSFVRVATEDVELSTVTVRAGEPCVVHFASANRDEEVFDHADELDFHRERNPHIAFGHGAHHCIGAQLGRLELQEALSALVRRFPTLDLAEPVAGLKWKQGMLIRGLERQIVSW

The target in assay [2] is T2, cytochrome P450 OleP (Streptomyces antibioticus, UniProt Q59819, G92W).
T2 construct: recombinant His-tagged OleP mutants from pET28b(+)-OleP, expressed in E. coli BL21(DE3), monomer, heme-containing
T2 sequence (Q59819 1-407 G92W): T1 sequence (Q59819 1-407 E89Y)

For assay [3], the target named is T3, cytochrome P450 OleP (Streptomyces antibioticus, UniProt Q59819, S240Y).
T3 construct: recombinant His-tagged OleP mutants from pET28b(+)-OleP, expressed in E. coli BL21(DE3), monomer, heme-containing
T3 sequence (Q59819 1-407 S240Y): T1 sequence (Q59819 1-407 E89Y)

Turning to `CC[C@H]1OC(=O)[C@H](C)[C@@H](O)[C@H](C)[C@@H](O)[C@@H](C)C[C@@H](C)C(=O)[C@H](C)[C@@H](O)[C@H]1C` [6DEB], the values for the Kd at cytochrome P450 OleP [1], on cytochrome P450 OleP [2] and on cytochrome P450 OleP [3] were 8500 ± 800 nM, 1200 ± 100 nM and 700 ± 100 nM, respectively.

Source of the values: PMC8774231, “Point Mutations at a Key Site Alter the Cytochrome P450 OleP Structural Dynamics” (Biomolecules, 2021).
